Measured values as given in publication PMC5652320 (ACS chemical biology, 2017).

Assays:
[1] = target: T1, His-PPARγ LBD (Homo sapiens, UniProt P37231); type: biochemical; conditions: TRAP220 coactivator peptide
T1 sequence (P37231 203-477 isoform P37231-2): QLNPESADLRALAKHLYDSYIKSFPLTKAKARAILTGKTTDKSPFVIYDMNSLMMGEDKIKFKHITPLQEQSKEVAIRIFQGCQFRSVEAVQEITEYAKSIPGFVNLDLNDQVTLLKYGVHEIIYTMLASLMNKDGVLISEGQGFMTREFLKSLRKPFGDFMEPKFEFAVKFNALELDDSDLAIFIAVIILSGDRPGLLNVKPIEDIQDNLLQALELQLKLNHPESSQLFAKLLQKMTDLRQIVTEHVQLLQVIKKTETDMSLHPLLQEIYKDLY

[2] = limited use of MRL20 concentrations to 30 μM in assays; cited from earlier work
[3] = target: T2, full-length PPARγ (Homo sapiens, UniProt P37231); assay: Full-length PPARγ/5xPPRE-luciferase reporter assay in HEK293T cells; type: cell-based; conditions: covalent analog ± 5 μM MRL20
T2 sequence (P37231 1-505): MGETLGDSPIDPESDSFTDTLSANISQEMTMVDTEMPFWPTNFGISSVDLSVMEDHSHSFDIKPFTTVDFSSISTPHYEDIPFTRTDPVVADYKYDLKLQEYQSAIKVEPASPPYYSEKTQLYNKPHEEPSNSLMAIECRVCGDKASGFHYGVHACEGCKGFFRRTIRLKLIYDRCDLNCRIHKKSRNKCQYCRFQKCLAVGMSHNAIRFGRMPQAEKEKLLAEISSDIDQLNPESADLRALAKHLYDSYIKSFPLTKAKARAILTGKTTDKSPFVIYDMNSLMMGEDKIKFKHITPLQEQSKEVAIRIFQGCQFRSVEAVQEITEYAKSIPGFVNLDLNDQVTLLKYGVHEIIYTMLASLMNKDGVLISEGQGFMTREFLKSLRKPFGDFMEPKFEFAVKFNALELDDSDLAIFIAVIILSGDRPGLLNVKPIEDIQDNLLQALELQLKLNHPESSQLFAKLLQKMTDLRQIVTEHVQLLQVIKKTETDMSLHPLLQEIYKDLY

With `O=C(Nc1ccccc1)c1cc([N+](=O)[O-])ccc1Cl` [GW9662] the “TR-FRET response to rosiglitazone with covalent antagonist-bound PPARγ LBD” value ([1]; rosiglitazone titration, endpoint 300 μM) was “lower but not blocked”.

In the case of `COc1ccc(C(=O)n2c(C)c(Cc3ccccc3O[C@@H](C)C(=O)O)c3cc(OC(F)(F)F)ccc32)cc1` [MRL20], the Solubility [2] is listed as “solubility issues”.

With `COc1ccc2nccc(NC(=O)c3cc([N+](=O)[O-])ccc3Cl)c2c1` [compound 22] the “Effect of covalent antagonist on binding of DHA to PPARγ” value ([1]; DHA dose response and 30 μM endpoint) was “reduced binding of DHA to PPARγ better than GW9662 and T0070907” and the “Inhibition of allosteric activation of full-length PPARγ by MRL20” value [3] was “inhibition of allosteric PPARγ activation”.
